Key:
[1] = target: GDP-bound NRAS wild-type protein (Homo sapiens, UniProt P01111); assay: Binding to NRAS by surface plasmon resonance (SPR), Single Cycle Kinetics; conditions: for NRAS/KRAS (ratio of KD value with respect to GDP-bound NRAS wild-type protein to KD value with respect to KRAS): class symbols
[2] = target: GDP-bound HRAS wild-type protein (Homo sapiens, UniProt P01112); assay: Binding to HRAS by surface plasmon resonance (SPR), Single Cycle Kinetics; conditions: for HRAS/KRAS (ratio of KD value with respect to GDP-bound HRAS wild-type protein to KD value with respect to KRAS): class symbols
Chain of GDP-bound HRAS wild-type protein (P01112 whole entry): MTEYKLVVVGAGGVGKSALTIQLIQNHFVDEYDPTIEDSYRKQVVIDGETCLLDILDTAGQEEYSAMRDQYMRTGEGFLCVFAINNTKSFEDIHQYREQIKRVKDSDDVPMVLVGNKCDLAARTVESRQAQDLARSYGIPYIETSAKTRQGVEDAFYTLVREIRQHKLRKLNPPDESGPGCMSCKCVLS

[3] = SPR, GDP-bound NRAS wild-type vs GDP-bound KRAS wild-type
[4] = SPR, GDP-bound HRAS wild-type vs GDP-bound KRAS wild-type
[5] = KD ratio, GDP-bound NRAS wild-type vs GDP-bound KRAS wild-type, SPR
[6] = KD ratio, GDP-bound HRAS wild-type vs GDP-bound KRAS wild-type, SPR

Chain of GDP-bound NRAS wild-type protein (P01111 whole entry): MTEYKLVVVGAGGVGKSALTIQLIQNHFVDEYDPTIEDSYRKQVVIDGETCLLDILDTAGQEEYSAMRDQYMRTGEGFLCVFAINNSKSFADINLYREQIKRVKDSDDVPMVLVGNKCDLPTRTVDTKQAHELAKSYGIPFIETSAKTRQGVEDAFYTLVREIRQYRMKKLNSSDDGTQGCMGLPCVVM

SMILES	NRAS/KRAS (ratio of KD value with respect to NRAS to KD value with respect to KRAS) [1, 3]	HRAS/KRAS (ratio of KD value with respect to HRAS to KD value with respect to KRAS) [2, 4]	further results
CCOC[C@H]1C(=O)N[C@@H]([C@@H](C)CC)C(=O)N(C)CC(=O)N(C)[C@H]2C/C=C\CCN(C2=O)[C@@H](Cc2ccc(C)cc2)C(=O)N(C)CC(=O)N[C@@H](CCc2cc(F)c(C(F)(F)F)c(F)c2)C(=O)N2C[C@H](OCC)C[C@H]2C(=O)NC2(CC(C)(C)C2)C(=O)N(C)[C@@H](C2CCCC2)C(=O)N(C)[C@H](C(=O)N(C)CC)CC(=O)N1C [PP2404]	A (a compound having 10 or more and less than 20 is denoted as A)	A (a compound having 10 or more and less than 20 is denoted as A)	
CCCN(C)C(=O)[C@@H]1CC(=O)N(C)[C@@H](CC)C(=O)N[C@@H]([C@@H](C)CC)C(=O)N(C)CC(=O)N(C)[C@H]2C/C=C\CCN(C2=O)[C@@H](Cc2ccc(C(F)(F)F)cc2)C(=O)N(C)CC(=O)N[C@@H](CCc2cc(F)c(C(F)(F)F)c(F)c2)C(=O)N2CC[C@H]2C(=O)NC2(CCC2)C(=O)N(C)[C@@H](C2CCCC2)C(=O)N1C [PP2915]			NRAS/KRAS (ratio of KD value with respect to GDP-bound NRAS wild-type protein to KD value with respect to KRAS) [1]: A (a compound having 10 or more and less than 20 is denoted as A); HRAS/KRAS (ratio of KD value with respect to GDP-bound HRAS wild-type protein to KD value with respect to KRAS) [2]: A (a compound having 10 or more and less than 20 is denoted as A)
CCCN1C(=O)C[C@@H](C(=O)N(C)C)N(C)C(=O)[C@H](C2CCCC2)N(C)C(=O)C2(CCC2)NC(=O)[C@@H]2C[C@@H](OCC)CN2C(=O)[C@H](CCc2cc(F)c(C(F)(F)F)c(F)c2)NC(=O)CN(C)C(=O)[C@H](Cc2ccc(C(F)(F)F)cc2)N2CC/C=C\C[C@@H](C2=O)N(C)C(=O)CNC(=O)[C@H]([C@@H](C)CC)NC(=O)[C@@H]1CC(C)C [PP1826]			NRAS/KRAS (ratio of KD value for NRAS to KD value for KRAS) [1, 5]: A (a compound having 10 or more and less than 20 is denoted as A); HRAS/KRAS (ratio of KD value for HRAS to KD value for KRAS) [2, 6]: A (a compound having 10 or more and less than 20 is denoted as A)
CCC[C@H]1C(=O)N[C@@H]([C@@H](C)CC)C(=O)N(C)CC(=O)N(C)[C@H]2C/C=C\CCN(C2=O)[C@@H](Cc2ccc(C(F)(F)F)cc2)C(=O)N(C)CC(=O)N[C@@H](CCc2ccc(Cl)c(C(F)(F)F)c2)C(=O)N2C[C@H](OCC)C[C@H]2C(=O)NC2(CC(C)(C)C2)C(=O)N(C)[C@@H](C2CCCC2)C(=O)N(C)[C@H](C(=O)N(C)C)CC(=O)N1C [PP2784]			NRAS/KRAS (ratio of KD value with respect to GDP-bound NRAS wild-type protein to KD value with respect to KRAS) [1]: A (a compound having 10 or more and less than 20 is denoted as A); HRAS/KRAS (ratio of KD value with respect to GDP-bound HRAS wild-type protein to KD value with respect to KRAS) [2]: A (a compound having 10 or more and less than 20 is denoted as A)
CC[C@H](C)[C@@H]1NC(=O)[C@H](CC(C)C)N(C)C(=O)C[C@@H](C(=O)N(C)C)N(C)C(=O)[C@H](C2CCCC2)N(C)C(=O)C2(CCCC2)NC(=O)[C@@H]2C[C@H](C)CN2C(=O)[C@H](CCc2cc(F)c(C(F)(F)F)c(F)c2)NC(=O)CN(C)C(=O)[C@H](Cc2ccc(C(F)(F)F)cc2)N2CC/C=C\C[C@@H](C2=O)N(C)C(=O)CN(C)C1=O [PP2268]	A (a compound having 10 or more and less than 20 is denoted as A)	A (a compound having 10 or more and less than 20 is denoted as A)	
CC[C@H](C)[C@@H]1NC(=O)[C@H](C(C)C)N(C)C(=O)C[C@@H](C(=O)N(C)CC)N(C)C(=O)[C@H](C2CCCC2)N(C)C(=O)C2(CCC2)NC(=O)[C@@H]2C[C@H](C)CN2C(=O)[C@H](CCc2ccc(C(F)(F)F)c(OC)c2)NC(=O)CN(C)C(=O)[C@H](Cc2ccc(C(F)(F)F)cc2)N2CC/C=C\C[C@@H](C2=O)N(C)C(=O)CN(C)C1=O [PP2065]	A (a compound having 10 or more and less than 20 is denoted as A)	B (a compound having 3 or more and less than 10 is denoted as B)	
CCO[C@@H]1C[C@H]2C(=O)NC3(CCCC3)C(=O)N(C)[C@@H](C3CCCC3)C(=O)N(C)[C@H](C(=O)N(C)C)CC(=O)N(C)[C@@H](CC(C)C)C(=O)N[C@@H]([C@@H](C)CC)C(=O)N(C)CC(=O)N(C)[C@H]3CC(C)=C(C)CN(C3=O)[C@@H](Cc3ccc(C(F)(F)F)cc3)C(=O)N(C)CC(=O)N[C@@H](CCc3cc(F)c(C(F)(F)F)c(F)c3)C(=O)N2C1 [PP1045]			NRAS/KRAS (ratio of KD value with respect to NRAS to KD value with respect to KRAS) [1, 5]: C (A compound having a KD ratio of 0.1 or more and less than 3 is denoted as C); HRAS/KRAS (ratio of KD value with respect to HRAS to KD value with respect to KRAS) [2, 6]: C (A compound having a KD ratio of 0.1 or more and less than 3 is denoted as C)
CCC[C@H]1C(=O)N[C@@H]([C@@H](C)CC)C(=O)N2CCC[C@H]2C(=O)N(C)[C@H]2C/C=C\CCN(C2=O)[C@@H](Cc2ccc(C)cc2)C(=O)N(C)CC(=O)N[C@@H](CCc2ccc(C(F)(F)F)c(OC)c2)C(=O)N2C[C@H](OCC)C[C@H]2C(=O)N(C)C2(CCC2)C(=O)N(C)[C@@H](C(CC)CC)C(=O)N(C)[C@H](C(=O)N(C)C)CC(=O)N1C [PP2329]	A (a compound having 10 or more and less than 20 is denoted as A)	A (a compound having 10 or more and less than 20 is denoted as A)	

From patent publication US20250230193A1, “CYCLIC COMPOUND HAVING SELECTIVE KRAS INHIBITORY EFFECT ON HRAS AND NRAS” (CHUGAI SEIYAKU KABUSHIKI KAISHA, priority 2022, published 2025)
